The values below are quoted from earlier work in US20220142894A1, “A PROCESS OF COLORING KERATINOUS MATERIAL COMPRISING THE USE OF AN ORGANOSILICON COMPOUND, AN EFFECT PIGMENT, AND A SEALING REAGENT V” (Henkel AG & Co. KGaA, priority 2019, published 2022).

Molecules are shown by their SMILES.

The conditions of the series: 25° C.

As to `CCN(Cc1cccc(S(=O)(=O)[O-])c1)c1ccc(C(=C2C=CC(=[N+](CC)Cc3cccc(S(=O)(=O)[O-])c3)C=C2)c2ccccc2S(=O)(=O)[O-])cc1.[Na+].[Na+]` [Acid Blue 9], the solubility in water result is on record as “more than 20 % by weight”. Consider `O=S(=O)([O-])c1ccc(N=Nc2c(O)ccc3ccccc23)cc1.[Na+]` [Acid Orange 7, sodium salt of 4-[(2-hydroxy-1-naphthyl)azo]benzene sulphonate], for which the solubility in water entry was “more than 7 g/L”. For the compound `Nc1cc(S(=O)(=O)[O-])cc2cc(S(=O)(=O)[O-])c(N=Nc3ccccc3)c(O)c12.[Na+].[Na+]` [Acid Red 33, disodium salt of 5-amino-4-hydroxy-3-(phenylazo)-naphthalene-2,7-disulphonate], the solubility in water is 2500 µg/mL. In the case of `O=C([O-])c1c(Cl)c(Cl)c(Cl)c(Cl)c1-c1c2c(Br)cc(=O)c(Br)c-2oc2c(Br)c(O)cc(Br)c12.O=C([O-])c1c(Cl)c(Cl)c(Cl)c(Cl)c1-c1c2c(Br)cc(=O)c(Br)c-2oc2c(Br)c(O)cc(Br)c12.[Na+].[Na+]` [Acid Red 92, disodium salt of 3,4,5,6-tetrachloro-2-(1,4,5,8-tetrabromo-6-hydroxy-3-oxoxanthen-9-yl)benzoic acid], the solubility in water result was “greater than 10 g/L”.

`O=C([O-])C1=NN(c2ccc(S(=O)(=O)[O-])cc2)C(=O)C1N=Nc1ccc(S(=O)(=O)[O-])cc1.[Na+].[Na+].[Na+]` (centres unmarked) [Acid Yellow 23, trisodium salt of 4,5-dihydro-5-oxo-1-(4-sulfophenyl)-4-((4-sulfophenyl)azo)-1H-pyrazole-3-carboxylic acid]: the “solubility in water (in words)” value is “highly soluble”.
